The test deals with RAW264.7. As to the kind of experiment: Antiinflammatory activity against mouse RAW264.7 cells assessed as stimulation LPS-induced TNFalpha release at 100 uM pretreated for 30 mins before LPS challenge by ELISA. It counts as functional, cell-based.

Activity data for four compounds are collected here from ChEMBL document CHEMBL1157221, “14,15-secopregnane derivatives from the leaves of Solenostemma argel” (J Nat Prod, 2006).

Activity calls are given as the source filed them. The rule behind the calls is not given here.

Turning to `CO[C@H]1C[C@H](O[C@H]2CC[C@@]3(COC(C)=O)C(=CC[C@@H]4[C@@H]3CC[C@]3(C)[C@@H]5[C@H]6CO[C@@]5(C)O[C@@]43O6)C2)O[C@H](C)[C@H]1O[C@H]1C[C@H](OC)[C@H](O[C@H]2C[C@@H](O)[C@H](O[C@H]3C[C@@H](OC)[C@H](O[C@@H]4O[C@H](CO)[C@@H](O)[C@H](O)[C@H]4O)[C@@H](C)O3)[C@@H](C)O2)[C@@H](C)O1`, the outcome was Active. Consider `CO[C@@H]1[C@@H](O)[C@H](O[C@@H]2[C@@H](C)O[C@@H](O[C@H]3[C@@H](OC)C[C@H](O[C@H]4[C@H](O)C[C@H](O[C@H]5CC[C@@]6(C)C(=CC[C@@H]7[C@@H]6CC[C@]6(C)[C@@H]8[C@H]9CO[C@@]8(C)O[C@@]76O9)C5)O[C@@H]4C)O[C@@H]3C)C[C@H]2OC)O[C@H](C)[C@H]1O[C@@H]1O[C@H](CO)[C@@H](O)[C@H](O)[C@H]1O`, for which the result was Active. For `CO[C@@H]1[C@@H](O)[C@H](O[C@@H]2[C@@H](C)O[C@@H](O[C@H]3[C@@H](OC)C[C@H](O[C@@H]4[C@@H](C)O[C@@H](O[C@H]5CC[C@@]6(CO)C(=CC[C@@H]7[C@@H]6CC[C@]6(C)[C@@H]8[C@H]9CO[C@@]8(C)O[C@@]76O9)C5)C[C@H]4OC)O[C@@H]3C)C[C@H]2OC)O[C@H](C)[C@H]1O[C@@H]1O[C@H](CO)[C@@H](O)[C@H](O)[C@H]1O`, the outcome was Active. In the case of `COC(=O)C[C@H](O[C@H]1CC[C@@]2(C)C(=CC[C@@H]3[C@@H]2CC[C@]2(C)[C@@H]4[C@H]5CO[C@@]4(C)O[C@@]32O5)C1)O[C@H](C)C(=O)O`, the outcome was inactive.
